≈ marks a conversion by molar mass, not a printed value. Where two headings read alike, the source gives them in different places. *1 amine or outer side, *2 acyl side, *3 side chain or, on linkers, in order; H or OH if unused. Where a SMILES comes first, the peptide text is derived from it. Bridges are numbered along the chain shown (N, C = ends). [ ]: non-standard residue; d: D form. The star is where a group is joined. ξ: configuration not given here. Phe(3,5-F2) = N[C@@H](Cc1cc(F)cc(F)c1)C(=O)O; NH(1-Me-indolin-5-yl) = CN1CCc2cc(N*)ccc21; NH(4-OCF3-phenyl) = FC(F)(F)Oc1ccc(N*)cc1; Morpholine(3S-CO) = O=C(O)[C@@H]1COCCN1; Pro(4S-Me) = C[C@@H]1CN[C@H](C(=O)O)C1; NH(4-Cl-2-F-phenyl) = Fc1cc(Cl)ccc1N*; Pro(4R-Me) = C[C@H]1CN[C@H](C(=O)O)C1; NMeaThr = CN[C@H](C(=O)O)[C@H](C)O; Hyp = O=C(O)[C@@H]1C[C@@H](O)CN1; NH(4-Et-phenyl) = CCc1ccc(N*)cc1; NMeT = CN[C@H](C(=O)O)[C@@H](C)O; Heptenoyl(2E) = CCCC/C=C/C(=O)*; NH(4-Me-phenyl) = Cc1ccc(N*)cc1; ξNMeThr = CNC(C(=O)O)[C@@H](C)O; aThr = C[C@H](O)[C@H](N)C(=O)O; CO = O=C([*:1])[*:2]
Columns and labels:
Sa-ClpP = molecular target: T1, Sa-ClpP (Staphylococcus aureus, UniProt Q2G036); experiment: ADEP displacement fluorescence polarization assay (FP probe ADEP 2591); assay type: binding
T1 construct: made in house; host or cells: E. coli BL21(DE3)
T1 sequence (Q2G036 1-195): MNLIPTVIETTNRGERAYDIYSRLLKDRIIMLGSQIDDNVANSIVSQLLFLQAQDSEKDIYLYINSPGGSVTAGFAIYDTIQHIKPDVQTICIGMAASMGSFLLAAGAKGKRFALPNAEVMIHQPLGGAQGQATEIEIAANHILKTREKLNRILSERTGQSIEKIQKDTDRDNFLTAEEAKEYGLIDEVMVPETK
Method in brief: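 Probe displacement was measured in mP after compounds sat 120 min at room temperature with pre-equilibrated (1 h) Sa-ClpP (15 μM) and ADEP 2591 FP probe (50 nM) in pH 8.0 Tris-HCl with 2% DMSO. Data were scaled between DMSO and 200 μM ADEP 2378 and fit by variable-slope log-inhibitor regression.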

[1] = system: Bacillus subtilis, ATCC 23857; experiment: Minimal inhibitory concentration assay (microbroth dilution); assay type: cell-based
Method in brief: (§1)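 Visual read-out; MIC is the lowest drug concentration with no bacterial growth after overnight aerobic incubation at 37 °C. Compound was tested in two-fold dilutions starting at 200 μM final, with an inoculum of approximately 10^5 cfu/mL, following CLSI microdilution guidance.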

[2] = system: Staphylococcus aureus, ATCC 29213; experiment: as above; assay type: cell-based; conditions: ATCC29213, read-out: Minimal Inhibitory Concentrations S. aureus ATCC 29213
Method in brief: as §1

[3] = system: Staphylococcus aureus, NRS70; experiment: as above; assay type: cell-based
Method in brief: as §1

[4] = system: Streptococcus pyogenes, ATCC 700294; experiment: as above; assay type: cell-based
Method in brief: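 Plates with two-fold compound dilution series in broth were incubated overnight, aerobically, at 37° C, following CLSI microdilution guidance.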

[5] = Bacillus subtilis, ATCC23857, read-out: Minimal Inhibitory Concentrations B. subtilis ATCC 23857
[6] = Staphylococcus aureus, NRS70, read-out: Minimal Inhibitory Concentrations S. aureus NRS70
[7] = Streptococcus pyogenes, ATCC700294, read-out: Minimal Inhibitory Concentrations S. pyogenes ATCC 700294
[8] = Bacillus subtilis, ATCC23857; read-out: Minimal Inhibitory Concentrations B. subtilis ATCC 23857
[9] = Staphylococcus aureus, NRS70; read-out: Minimal Inhibitory Concentrations S. aureus NRS70
[10] = Streptococcus pyogenes, ATCC700294; read-out: Minimal Inhibitory Concentrations S. pyogenes ATCC 700294
[11] = displacement of FP probe ADEP 2591 from Sa-ClpP, read-out: ADEP Displacement IC50

SMILES | IC50 (Sa-ClpP) [µM] | MIC [1, 5] [µM] | MIC [2] [µM] | MIC [3, 6] [µM] | MIC [4, 7] [µM] | MIC [1, 8] [µM] | MIC [3, 9] [µM] | MIC [4, 10] [µM] | IC50 (Sa-ClpP; [11]) [µM]
Cc1ccc(NC(=O)N[C@@H](Cc2cc(F)cc(F)c2)C(=O)N[C@H]2COC(=O)[C@@H]3C[C@@H](C)CN3C(=O)[C@H](C)NC(=O)[C@@H]3CCCCN3C(=O)[C@@H]3CCCN3C2=O)cc1C [Compound 207, (S)-3-(3,5-difluorophenyl)-N-((2R,6S,8aS,14aS,20S,23aS)-2,6-dimethyl-5,8,14,19,23-pentaoxooctadecahydro-1H,5H,14H,19H-pyrido[2,1-i]dipyrrolo[2,1-c:2′,1′-l][1]oxa[4,7,10,13]tetraazacyclohexadecin-20-yl)-2-(3-(3,4-dimethylphenyl)ureido)propanamide] | 5.2 ± 0.3 | < 0.2 | < 0.2 | < 0.2 | < 0.2 |  |  |  | 
C[C@@H]1C[C@H]2C(=O)O[C@@H](C)[C@H](NC(=O)[C@H](Cc3cc(F)cc(F)c3)NC(=O)Nc3ccc4c(c3)CCN4C)C(=O)N3CCC[C@H]3C(=O)N3CCOC[C@H]3C(=O)N[C@@H](C)C(=O)N2C1 [Compound 312, (S)-3-(3,5-difluorophenyl)-2-(3-(1-methylindolin-5-yl)ureido)-N-((6aS,12S,13S,15aS,17R,21S,23aS)-13,17,21-trimethyl-6,11,15,20,23-pentaoxooctadecahydro-6H,11H,15H-[1,4]oxazino[3,4-i]dipyrrolo[2,1-c:2′,1′-l][1]oxa[4,7,10,13]tetraazacyclo-hexadecin-12-yl)propanamide] ({NH(1-Me-indolin-5-yl)-CO}-[Phe(3,5-F2)][aThr]P[Morpholine(3S-CO)]A[Pro(4R-Me)]; ester 2-C) | 6.3 ± 0.4 | 0.313 (≈ 0.266 µg/mL) | 0.156 (≈ 0.133 µg/mL) | 0.078 (≈ 0.0664 µg/mL) | 0.156 (≈ 0.133 µg/mL) |  |  |  | 
C[C@@H]1C[C@H]2C(=O)O[C@@H](C)[C@H](NC(=O)[C@H](Cc3cc(F)cc(F)c3)NC(=O)Nc3ccc(Cl)cc3F)C(=O)N3CCC[C@H]3C(=O)N(C)C([C@@H](C)O)C(=O)N[C@@H](C)C(=O)N2C1 (stereo partly drawn) [Compound 313, (S)-2-(3-(4-chloro-2-fluorophenyl)ureido)-3-(3,5-difluorophenyl)-N-((2R,6S,9R,11aS,17S,18S,20aS)-9-((R)-1-hydroxyethyl)-2,6,10,18-tetramethyl-5,8,11,16,20-pentaoxohexadecahydro-1H,5H,16H-dipyrrolo[2,1-c:2′,1′-l][1]oxa[4,7,10,13]tetraazacyclohexadecin-17-yl)propanamide] ({NH(4-Cl-2-F-phenyl)-CO}-[Phe(3,5-F2)][aThr]P[ξNMeThr]A[Pro(4R-Me)]; ester 2-C) | 7.3 ± 0.5 |  | < 0.02 |  |  | < 0.02 | < 0.02 | < 0.02 | 
Cc1ccc(NC(=O)N[C@@H](Cc2cc(F)cc(F)c2)C(=O)N[C@@H]2C(=O)N3CCC[C@H]3C(=O)N(C)[C@@H]([C@@H](C)O)C(=O)N[C@@H](C)C(=O)N3C[C@@H](C)C[C@H]3C(=O)O[C@H]2C)cc1 [Compound 35, (S)-3-(3,5-difluorophenyl)-N-((2S,6S,9S,11aS,17S,18S,20aS)-9-((R)-1-hydroxyethyl)-2,6,10,18-tetramethyl-5,8,11,16,20-pentaoxohexadecahydro-1H,5H,16H-dipyrrolo[2,1-c:2′,1′-l][1]oxa[4,7,10,13]tetraazacyclohexadecin-17-yl)-2-(3-(p-tolyl)ureido)propanamide] ({NH(4-Me-phenyl)-CO}-[Phe(3,5-F2)][aThr]P[NMeT]A[Pro(4S-Me)]; ester 2-C) | 6.6 ± 0.4 | 0.2 (≈ 0.162 µg/mL) | 0.2 (≈ 0.162 µg/mL) | 0.1 (≈ 0.0812 µg/mL) | 0.39 (≈ 0.317 µg/mL) |  |  |  | 
Cc1ccc(NC(=O)N[C@@H](Cc2cc(F)cc(F)c2)C(=O)N[C@H]2COC(=O)[C@@H]3C[C@@H](C)CN3C(=O)[C@H](C)NC(=O)C3CCCCN3C(=O)[C@@H]3C[C@@H](O)CN3C2=O)cc1 (stereo partly drawn) [Compound 323, (S)-3-(3,5-difluorophenyl)-N-((2R,6S,8aR,14aS,16R,20S,23aS)-16-hydroxy-2,6-dimethyl-5,8,14,19,23-pentaoxooctadecahydro-1H,5H,14H,19H-pyrido[2,1-i]dipyrrolo[2,1-c:2′,1′-l][1]oxa[4,7,10,13]tetraazacyclohexadecin-20-yl)-2-(3-(p-tolyl)ureido)propanamide] | 9.18 ± 0.4 | 0.313 (≈ 0.253 µg/mL) | 0.625 (≈ 0.506 µg/mL) | 0.625 (≈ 0.506 µg/mL) | 0.156 (≈ 0.126 µg/mL) |  |  |  | 
C[C@H]1C[C@H]2C(=O)O[C@@H](C)[C@H](NC(=O)[C@H](Cc3cc(F)cc(F)c3)NC(=O)Nc3ccc(OC(F)(F)F)cc3)C(=O)N3CCC[C@H]3C(=O)N(C)[C@@H]([C@H](C)O)C(=O)N[C@@H](C)C(=O)N2C1 [Compound 203, (S)-3-(3,5-difluorophenyl)-N-((2S,6S,9S,11aS,17S,18S,20aS)-9-((S)-1-hydroxyethyl)-2,6,10,18-tetramethyl-5,8,11,16,20-pentaoxohexadecahydro-1H,5H,16H-dipyrrolo[2,1-c:2′,1′-l][1]oxa[4,7,10,13]tetraazacyclohexadecin-17-yl)-2-(3-(4-(trifluoromethoxy)phenyl)ureido)propanamide] ({NH(4-OCF3-phenyl)-CO}-[Phe(3,5-F2)][aThr]P[NMeaThr]A[Pro(4S-Me)]; ester 2-C) |  |  | 0.098 (≈ 0.0864 µg/mL) |  |  | 0.098 (≈ 0.0864 µg/mL) | 0.049 (≈ 0.0432 µg/mL) | 0.195 (≈ 0.172 µg/mL) | 6.4 ± 0.5
Cc1ccc(NC(=O)N[C@@H](Cc2ccccc2)C(=O)N[C@H]2COC(=O)[C@@H]3C[C@@H](C)CN3C(=O)[C@H](C)NC(=O)[C@@H]3CCCCN3C(=O)[C@@H]3CCCN3C2=O)cc1C [Compound 206, (S)—N-((2R,6S,8aS,14aS,20S,23aS)-2,6-dimethyl-5,8,14,19,23-pentaoxooctadecahydro-1H,5H,14H,19H-pyrido[2,1-i]dipyrrolo[2,1-c:2′,1′-l][1]oxa[4,7,10,13]tetraazacyclohexadecin-20-yl)-2-(3-(3,4-dimethylphenyl)ureido)-3-phenylpropanamide] | 7.1 ± 0.3 | < 0.2 | 0.39 (≈ 0.301 µg/mL) | 0.39 (≈ 0.301 µg/mL) | < 0.2 |  |  |  | 
CCCC/C=C/C(=O)N[C@@H](Cc1cc(F)cc(F)c1)C(=O)N[C@@H]1C(=O)N2C[C@H](O)C[C@H]2C(=O)N2CCOC[C@H]2C(=O)N[C@@H](C)C(=O)N2C[C@H](C)C[C@H]2C(=O)O[C@H]1C [Compound 309, (E)-N—((S)-3-(3,5-difluorophenyl)-1-(((6aS,8R,12S,13S,15aS,17R,21S,23aS)-8-hydroxy-13,17,21-trimethyl-6,11,15,20,23-pentaoxooctadecahydro-6H,11H,15H-[1,4]oxazino[3,4-i]dipyrrolo[2,1-c:2′,1′-l][1]oxa[4,7,10,13]tetraazacyclohexadecin-12-yl)amino)-1-oxopropan-2-yl)hept-2-enamide] ({Heptenoyl(2E)}-[Phe(3,5-F2)][aThr][Hyp][Morpholine(3S-CO)]A[Pro(4R-Me)]; ester 2-C) | 7.2 ± 0.4 |  | 0.156 (≈ 0.125 µg/mL) |  |  | 0.156 (≈ 0.125 µg/mL) | 0.156 (≈ 0.125 µg/mL) | < 0.02 | 
CCc1ccc(NC(=O)N[C@@H](Cc2cc(F)cc(F)c2)C(=O)N[C@@H]2C(=O)N3CCC[C@H]3C(=O)N(C)[C@@H]([C@H](C)O)C(=O)N[C@@H](C)C(=O)N3C[C@@H](C)C[C@H]3C(=O)O[C@H]2C)cc1 [Compound 204, (S)-3-(3,5-difluorophenyl)-2-(3-(4-ethylphenyl)ureido)-N-((2S,6S,9S,11aS,17S,18S,20aS)-9-((S)-1-hydroxyethyl)-2,6,10,18-tetramethyl-5,8,11,16,20-pentaoxohexadecahydro-1H,5H,16H-dipyrrolo[2,1-c:2′,1′-l][1]oxa[4,7,10,13]tetraazacyclohexadecin-17-yl)propanamide] ({NH(4-Et-phenyl)-CO}-[Phe(3,5-F2)][aThr]P[NMeaThr]A[Pro(4S-Me)]; ester 2-C) |  |  | 0.098 (≈ 0.0809 µg/mL) |  |  | 0.049 (≈ 0.0405 µg/mL) | 0.098 (≈ 0.0809 µg/mL) | 0.098 (≈ 0.0809 µg/mL) | 7 ± 0.4
CCCC/C=C/C(=O)N[C@@H](Cc1cc(F)cc(F)c1)C(=O)N[C@@H]1C(=O)N2CCC[C@H]2C(=O)N(C)[C@@H]([C@@H](C)O)C(=O)N[C@@H](C)C(=O)N2C[C@H](C)C[C@H]2C(=O)O[C@H]1C [Compound 308, (E)-N—((S)-3-(3,5-difluorophenyl)-1-(((2R,6S,9S,11aS,17S,18S,20aS)-9-((R)-1-hydroxyethyl)-2,6,10,18-tetramethyl-5,8,11,16,20-pentaoxohexadecahydro-1H,5H,16H-dipyrrolo[2,1-c:2′,1′-l][1]oxa[4,7,10,13]tetraazacyclohexadecin-17-yl)amino)-1-oxopropan-2-yl)hept-2-enamide] ({Heptenoyl(2E)}-[Phe(3,5-F2)][aThr]P[NMeT]A[Pro(4R-Me)]; ester 2-C) | 4.4 ± 0.3 |  | 0.039 (≈ 0.0308 µg/mL) |  |  | < 0.02 | 0.039 (≈ 0.0308 µg/mL) | < 0.02 | 
